Measured values reported in publication PMC10721898, “C5 methylation confers accessibility, stability and selectivity to picrotoxinin” (Nature Communications, 2023).
Entries after “also recorded” stand apart in the source; their conditions may differ.

Key:
[1] = Stability in mouse plasma; type: in vitro ADME; conditions: for T½ in mouse plasma / half-life at 2 µM: 37 °C, incubation to 120 min, extrapolated half-life, n = 2; for half-life at 2 µM / remaining at 0 h, 2 µM / remaining at 10 min, 2 µM / remaining at 0.5 h, 2 µM / remaining at 1 h, 2 µM / remaining at 2 h, 2 µM: male, CD-1, mouse, plasma; for half-life at 2 µM: read-out: T½ in mouse plasma; for remaining at 0 h, 2 µM: 0 min; for remaining at 0.5 h, 2 µM: 30 min; for remaining at 1 h, 2 µM: 60 min; for remaining at 2 h, 2 µM: 120 min
Description: We investigated the relative rates of esterase-mediated hydrolysis[17] observed in mouse and human plasma, to evaluate potential for future translational applications. […] Due to the high stability of the C15 lactone, identified above, combined with the kinetic lability and reversible opening of the C11 lactone identified previously, enzymatic degradation in serum likely reflects a combination of reversible C11 hydrolysis[38] (unaffected by C5 methylation) and irreversible C15 hydrolysis (obstructed by C5 methylation)[17]. No prior studies have identified PXN modifications that enhance metabolic stability, partly due to the difficulty of synthetic modification and partly due to the prior incorrect assignment of the site of kinetic hydrolysis (C11 vs. C15)[38].
Test compound working solution: 5 μL of tested compound stock solution (10 mM in DMSO) were diluted with 495 μL of DMSO (concentration: 100 μM, 100% DMSO). Propantheline bromide working solution: 5 μL of propantheline bromide stock solution (10 mM in DMSO) were diluted with 495 μL of H2O (concentration: 100 […]
Supplementary Table 6. Test system.
Species/ Matrix Minimum No. of Anticoagulant Vendor
CD-1 Mouse 20 Male EDTA-K2 Beijing Vital River Laboratory
Human Plasma 3 Male & 3 Female EDTA-K2 BioreclamationIVT
The pooled frozen plasma was thawed in a water bath at 37 °C prior to experiment. Plasma was centrifuged at 1968 g (4000 rpm) for 5 min and the clots were removed. Using an Apricot automation work station, 98 μL/well of blank plasma were added to all 96-well reaction plates. (Blank, T0, T10, T30, T60 and T120) . An Apricot automation workstation was used to add 2 μL/well of working solution (100 μM) to all reaction plates except Blank. (T0, T10, T30, T60 and T120) . All reaction plates containing mix tures of compound a nd plasma were incubated at 37 °C in water bath. The reaction plates were incubated at 37 °C, and timer was started. At the end of incubation, 400 μL of stock solution was added (200 ng/mL tolbutamide and 200 ng/mL labetalol in MeCN) to precipitate protein and mixed thoroughly. Each plate was sealed and shaken for 20 minutes, then centrifuged at 1968 g (4000 rpm) and 4 °C for 20 minutes. After centrifugation, an Apricot automation workstation was used to transfer 150 μL supernatant. Each bioanalysis plate was sealed and shaken for 10 minutes prior to LC -MS/MS […]
The % remaining of test compound after incubation in plasma was calculated using following equation:
% Remaining= 100 x (PAR at appointed incubation time / PAR at T0 time) where PAR is the peak area ratio of analyte versus internal standard (IS) The appointed incubation time points are T0 (0 min), Tn (n=0, 10, 30, 60, 120 min)
Supplementary Table 7. %Remaining of test compound in two plasmas.
Compound Time point (min) % Remaining T½ (min)

[2] = Methanolysis with NaOMe in d4-methanol (1H NMR monitoring); type: physicochemical; conditions: for stability to catalytic NaOMe: 5 mol % NaOMe, 22 °C; for stability to catalytic NaOMe / competition experiment, 1:1 mixture of PXN and 5MePXN: d4-methanol; for concentration in competitive methanolysis: 5 mol% NaOMe in CD3OD; for competition experiment, 1:1 mixture of PXN and 5MePXN: 5 mol% NaOMe
Description: Even addition of 2 equivalents NaOMe had no effect on 5MePXN (Fig. 3b and SI), far exceeding the tolerance of PXN. Thus, C5 methylation stabilized PXN against buffered water hydrolysis, acidic hydrolysis and alkaline methanolysis (Fig. 3a–d, see also ref. [21]). This profound stabilization highlighted the unique effects to reactivity imparted by C5 methylation. Furthermore, it opened a window into understanding differences in blood degradation of 5MePXN.
Supplementary Figure 4. Competitive methanolysis of PXN and 5MePXN under 5 mol% NaOMe in CD3OD.
(a) 0 min, (b) 10 min, (c) 30 min, (d) 60 min, (e) 100 min, (f) 140 min, (g) 280 min.
Supplementary Table 5. Concentration of each component in competitive methanolysis. […]
Supplementary Figure 5. Concentration of PXN, d5-33, d9-34 and 5MePXN vs. time (min) 3.4 Methanolysis of 5MePXN under different equivalent of NaOMe in CD3OD To a solution of 5MePXN (2.5 mg, 0.0082 mmol ) in CD 3OD (0.4 mL) in 5 mm NMR tube was added a solution of NaOMe in CD3OD (0.1, 0.2, 0.5, 0.8, 1.0, 1.5 and 2.0 equiv) at room temperature. The NMR tube was shaken bottom up 5 times to make solution homogenous, then measured by 1H NMR.

[3] = Degradation in dilute sulfuric acid; type: physicochemical; conditions: for stability to acid: 1 mol % H2SO4 (Fig. 1b); for degradation in acid: warming, 1% H2SO4, 0.18 M, aqueous
[4] = D2O, 8.2 pH*; previously observed; cited from earlier work

Compound	T½ in mouse plasma [1] [h]	half-life at 2 µM [1] [h]	remaining at 0 h, 2 µM [1] [%]	remaining at 10 min, 2 µM [1] [%]	remaining at 0.5 h, 2 µM [1] [%]	remaining at 1 h, 2 µM [1] [%]	remaining at 2 h, 2 µM [1] [%]	stability to catalytic NaOMe [2]	concentration in competitive methanolysis ([2]; 0 min) [µM]	concentration in competitive methanolysis ([2]; 5 min) [µM]	concentration in competitive methanolysis ([2]; 10 min) [µM]	concentration in competitive methanolysis ([2]; 15 min) [µM]	concentration in competitive methanolysis ([2]; 20 min) [µM]	concentration in competitive methanolysis ([2]; 25 min) [µM]	concentration in competitive methanolysis ([2]; 30 min) [µM]	concentration in competitive methanolysis ([2]; 35 min) [µM]	concentration in competitive methanolysis ([2]; 40 min) [µM]	concentration in competitive methanolysis ([2]; 45 min) [µM]	concentration in competitive methanolysis ([2]; 50 min) [µM]	concentration in competitive methanolysis ([2]; 55 min) [µM]	also measured
C=C(C)C1C2OC(=O)C1(C)C1(O)CC3OC34C(=O)OC2C41C (stereo not drawn) [5MePXN, 5-methylpicrotoxinin]	3.45	3.45	100	97.9	87.9	75.7	68	did not observe any consumption	3268	3268	3268	3268	3268	3268	3268	3268	3268	3268	3268	3268	increase of extrapolated half-life by C5 methylation, mouse plasma ([1]; 5MePXN vs. PXN): 2.1 X; concentration in competitive methanolysis ([2]; 60 min): 3268 µM; concentration in competitive methanolysis ([2]; 65 min): 3268 µM; concentration in competitive methanolysis ([2]; 70 min): 3268 µM; concentration in competitive methanolysis ([2]; 75 min): 3268 µM; concentration in competitive methanolysis ([2]; 80 min): 3268 µM; concentration in competitive methanolysis ([2]; 85 min): 3268 µM; concentration in competitive methanolysis ([2]; 90 min): 3268 µM; concentration in competitive methanolysis ([2]; 95 min): 3268 µM; concentration in competitive methanolysis ([2]; 100 min): 3268 µM; concentration in competitive methanolysis ([2]; 110 min): 3268 µM; concentration in competitive methanolysis ([2]; 120 min): 3268 µM; concentration in competitive methanolysis ([2]; 130 min): 3268 µM; concentration in competitive methanolysis ([2]; 140 min): 3268 µM; concentration in competitive methanolysis ([2]; 280 min): 3268 µM; competition experiment, 1:1 mixture of PXN and 5MePXN [2]: completely persisted; stability to excess NaOMe ([2]; 200 mol % (2 equivalents) NaOMe): had no effect; also recorded: stable; stability to acid [3]: stable; degradation in acid [3]: did not react at all; t1/2 of degradation (pseudo-first order) [4]: 120 h
C=C(C)[C@@H]1[C@H]2OC(=O)[C@@H]1[C@]1(O)C[C@H]3O[C@]34C(=O)O[C@H]2[C@]14C [PXN, picrotoxinin]	1.62	1.62	100	102	87.1	67.4	44.7	equimolar mixture of d5-methyl picrotoxate (d5-33) and d9-dimethyl picrotoxinin dicarboxylate (d9-34) in 6 h; also recorded: unstable	3424.6	2952	2500	2181	1935	1679	1564	1495	1464	1375	1307	1223	concentration in competitive methanolysis ([2]; 60 min): 1119 µM; concentration in competitive methanolysis ([2]; 65 min): 1044 µM; concentration in competitive methanolysis ([2]; 70 min): 962 µM; concentration in competitive methanolysis ([2]; 75 min): 925.6 µM; concentration in competitive methanolysis ([2]; 80 min): 856.1 µM; concentration in competitive methanolysis ([2]; 85 min): 800.1 µM; concentration in competitive methanolysis ([2]; 90 min): 773 µM; concentration in competitive methanolysis ([2]; 95 min): 730.2 µM; concentration in competitive methanolysis ([2]; 100 min): 704.7 µM; concentration in competitive methanolysis ([2]; 110 min): 611.5 µM; concentration in competitive methanolysis ([2]; 120 min): 560.5 µM; concentration in competitive methanolysis ([2]; 130 min): 515 µM; concentration in competitive methanolysis ([2]; 140 min): 466.6 µM; concentration in competitive methanolysis ([2]; 280 min): 215.8 µM; competition experiment, 1:1 mixture of PXN and 5MePXN [2]: completely degraded; stability to acid [3]: unstable; degradation in acid [3]: clean conversion to picrotoxic acid (32) in 24 h; t1/2 of degradation (pseudo-first order) [4]: 60 h
